# Where “and” joins values, the source holds several entries; their conditions need not be identical. Equal entries are not always repeated.
# Legend:
# chymotrypsin = target: T1, chymotrypsin (Bos taurus, UniProt P00766); experiment: Irreversible inhibition kinetics of chymotrypsin (fluorogenic substrate progress curves); assay type: biochemical, bovine
# T1 construct: purchased Sigma-Aldrich (supplement); Calbiochem; host or cells: bovine pancreas
# Protocol: (§1) A range of inhibitor concentrations were prepared from a 10 mM stock solution of the test compounds (NAP533, NAP559, NAP800, NAP830, NAP849, and NAP962) in N, N-dimethylformamide (DMF). Recombinant protease activities were assayed using the cognate fluorogenic substrates as follows: trypsin (Z-Gly-Gly-Arg-NHMec), thrombin (Boc-Val-Pro-Arg-NHMec), plasmin (Boc-Val-Leu-Lys-NHMec), human neutrophil elastase (MeO-Succinyl-Ala-Ala-Pro-Val-NHMec), and chymotrypsin (Succinyl-Ala-Ala-Pro-Phe-NHMec). Each substrate was used at a final concentration of 50 μM, in the appropriate buffer for each protease. All inhibition assays were performed in microtiter plates maintained at 37°C in a final volume of 100 μL. The reaction was initiated by the addition of each protease (approx. 0.01 μg/well) and the rate of substrate hydrolysis was recorded continuously at 37°C, over a 60 min period, by measuring the rate of increase in fluorescence (at λex 360 nm, λem 480 nm) using a FLUOstar Optima microplate reader (BMG Labtech).
# (§2) The resultant inhibition progress curves obtained for each inhibitor were analyzed by the kinetic models developed by [Tian and Tsou (1982)] and [Walker and Elmore (1984)], for irreversible inhibitors, with curve fitting being achieved using GraFit (Erithacus Software), as described previously ([Ferguson et al., 2016]).
# (§3) FIGURE 4 Progress curves for (A), chymotrypsin-catalysed hydrolysis of Succinyl-Ala-Ala-Pro-Phe-NHMec, in the presence of varying concentrations of NAP849. (B), NE-catalysed hydrolysis of MeO-succinyl-Ala-Ala-Pro-Val-NHMec, in the presence of varying concentrations of NAP800. (C) Trypsin-catalysed of Z-Gly-Gly-Arg-NHMec, in the presence of NAP830. (D) Plasmin-catalysed hydrolysis of Boc-Val-Leu-Lys-NHMec, in the presence of varying concentrations of NAP962. Assays were carried out in PBS, pH 7.4, at 37°C, in the presence of a range of inhibitor concentrations (0.25–50 μM) and a fixed concentration (50 μM) of the appropriate substrate for each protease.
# (§4) The “product progress” curves for substrate hydrolysis in the presence of an inhibitor (Figure 4) are indicative of the action of irreversible inhibitors operating through the kinetic scheme illustrated in Figure 6. In this scheme, the formation of the reversible enzyme–inhibitor complex (EI) is zcharacterized by the inhibitor constant K i. This is converted into the covalent/irreversible complex (E-I) characterized by a first-order rate constant k 3. The overall second-order rate constant for the inactivation of E by I is given by the ratio k 3/K i ([Walker and Elmore, 1984]; [Tsou, 1988]). […]
# (§5) Protease inactivation by each of the compounds under study was evaluated using a fluorogenic enzyme assays. […]
# neutrophil elastase (NE) = target: T2, neutrophil elastase (NE) (Homo sapiens, UniProt P08246); experiment: Irreversible inhibition kinetics of neutrophil elastase (fluorogenic substrate progress curves); assay type: biochemical
# T2 construct: purchased Calbiochem
# T2 sequence (P08246 30-267): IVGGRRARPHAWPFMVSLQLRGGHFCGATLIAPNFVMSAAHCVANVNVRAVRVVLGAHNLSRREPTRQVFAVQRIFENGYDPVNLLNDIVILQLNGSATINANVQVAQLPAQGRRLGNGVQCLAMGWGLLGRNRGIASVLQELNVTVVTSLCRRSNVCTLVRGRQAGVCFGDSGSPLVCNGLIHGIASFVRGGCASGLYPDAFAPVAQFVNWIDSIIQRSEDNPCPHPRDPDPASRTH
# Protocol: as §1, §2, §3, §4, §5
# thrombin = target: T3, thrombin (Homo sapiens, UniProt P00734); experiment: Irreversible inhibition kinetics of thrombin (fluorogenic substrate progress curves); assay type: biochemical; settings: PBS pH 7.4, 37°C, mean ± SD (n=2)
# T3 construct: apparent molecular mass of 31 kDa, corresponding to the heavy (catalytic) chain of the protease; purchased R&D Systems
# Protocol: as §1, §2
# Protease inactivation by each of the compounds under study was evaluated using a fluorogenic enzyme assays. Protease-substrate combinations used as detailed in Section 2. Inhibitors were made up as 10 mM stock solutions in either DMF or DMSO, then diluted with PBS (pH 7.4) to give appropriate working concentrations. A final volume of 100 μL was used per well. […] Increase in fluorescence was recorded using a FLUOstar OPTIMA spectrofluorometer (BMG Labtech), excitation 380 nm and emission 460 nm, for 61 cycles (60 seconds/cycle), with results analysed using MARS Data Analysis Software (BMG Labtech). […]
smiles,measurement,setting,value
"O=C(CCCCC1SCC2NC(=O)NC21)NCCCOCCOCCOCCCNC(=O)CNC(=O)CNC(=O)CN(Cc1ccccc1)C(=O)ON1C(=O)CCC1=O (stereo not drawn) [NAP849, Succinimidoyl-CO-NPhe-Gly-Gly-PEG-Biotin]",Ki,"chymotrypsin; Succinyl-Ala-Ala-Pro-Phe-NHMec 50 μM, PBS pH 7.4, 37°C, mean ± SD (n=3)",0.89 µM
same,k 3,"chymotrypsin; first-order rate constant, PBS pH 7.4, 37°C, mean ± SD (n=3)",0.85 (± 0.29) min^−1
same,second-order rate constant relative to the analogous phenylalanine diphenyl phosphonate QUBCL1,chymotrypsin; fold greater than QUBCL1,approximately ten-fold
same,k 3 / K i,"chymotrypsin; second-order rate constant of inactivation, PBS pH 7.4, 37°C, mean ± SD (n=3)",1.28 × 10^6 M^−1 min^−1 and 1.28 (± 0.44) × 10^6 M^−1 min^−1
"CC(C)N(CC(=O)NCC(=O)NCC(=O)NCCCOCCOCCOCCCNC(=O)CCCCC1SCC2NC(=O)NC21)C(=O)ON1C(=O)CCC1=O (stereo not drawn) [NAP800, Succinimidoyl-CO-NVal-Gly-Gly-PEG-Biotin]",Ki,"neutrophil elastase (NE); MeO-Succinyl-Ala-Ala-Pro-Val-NHMec 50 μM, PBS pH 7.4, 37°C, mean ± SD (n=2)",6 µM
same,k 3,"neutrophil elastase (NE); first-order rate constant, PBS pH 7.4, 37°C, mean ± SD (n=2)",0.38(± 0.06) min^−1
same,second-order rate constant (k 3/K i) relative to the analogous valine diphenyl phosphonate QUBEL1,neutrophil elastase (NE); fold greater than QUBEL1,approximately five-fold
same,k 3 / K i,"neutrophil elastase (NE); second-order rate constant of inactivation, PBS pH 7.4, 37°C, mean ± SD (n=2)",6.41 × 10^4 M^−1 min^−1 and 6.4 (± 0.57) × 10^4 M^−1 min^−1
"N=C(N)NCCCN(CC(=O)N1CCC[C@H]1C(=O)N(CC(N)=O)Cc1ccccc1)C(=O)ON1C(=O)CCC1=O [NAP559, Succinimidoyl-CO-NArg-D-Pro-NPhe-NH2]",KI (inactivation),thrombin; Boc-Val-Pro-Arg-NHMec 50µM,5.67 µM
same,k 3,thrombin; first-order rate constant,0.6 (± 0.068) min^-1
same,k 3 / K i,thrombin; second-order rate constant,1.1 (± 0.3) x 10^5 M^-1 min^-1

# — paper PMC9555310, “Novel inhibitors and activity-based probes targeting serine proteases” (Frontiers in Chemistry, 2022)
